Here are results for one compound from US8557823B2, “Family of PFKFB3 inhibitors with anti-neoplastic activities” (Advanced Cancer Therapeutics, LLC, priority 2007, dated 2013).

The test system of data set [1] is Jurkat cells expressing unaltered PFKFB3 levels. Kind of data set: Growth inhibition of control Jurkat cells (empty vector, doxycycline). It counts as cell-based. The settings on record: Homo sapiens, 48 hours. Here is the method:
FIG. 6D is a bar graph showing the anti-proliferative effects of 3PO in Jurkat cells engineered to over-express PFKFB3 through doxycylin treatment utilizing the Tet-on system (+PFKFB3, striped bars). Twenty-four hours prior to 3PO treatment, 1 μg/mL of doxycyclin is incubated with Jurkat cells containing a PFKFB3-expressing vector in order to induce PFKFB3 protein levels. Control cells (−PFKFB3, solid bars) containing an empty vector were similarly treated with doxycyclin and served as background PFKFB3 expression. Both cell types were subsequently incubated with increasing concentrations of 3PO (1, 3, 10, or 33 μM) or vehicle (V), and viable cells were analyzed after 48 hours. The bars represent the mean±STD of triplicate values from a representative experiment.
(§1) All cell lines were plated at 1×10^5 cells/well in the appropriate medium. For suspension cells, increasing concentrations of 1 were added immediately to the medium, whereas, compound 1 treatment was initiated the following day for adherent cell lines. For dose-dependent studies, compound 1 was added in increasing concentrations for 36 hours. For time-dependent studies, 10 μM of compound 1 was added at time 0, 4, 8, 16, 24, or 36 hours. […]
(§2) Cells were collected 48 hours post-treatment, and cell number and viability were determined by trypan blue exclusion. […]

Data set [2] concerns LLC (Lewis Lung Carcinoma) cells. Put plainly: In vitro growth inhibition, LLC. The settings on record: mouse LLC. It counts as cell-based. Here is the method:
(§3) The K562, HL-60, MDA-MB231, and melanoma (CRL-11174) human cancer cell lines were purchased from ATCC (American Tissue Type Culture Collection, Manassas, Va., United States of America). HeLa, A549, Lewis Lung Carcinoma, MDA-MB231, and melanoma cells were grown in Dulbecco's Modified Eagle Medium (DMEM) (Hyclone, Logan, Utah, United States of America) supplemented with 10% fetal bovine serum (Hyclone, Logan, Utah, United States of America) and 50 μg/mL gentamicin sulfate (Invitrogen, Carlsbad, Calif., United States of America). The HL-60, K562, and Jurkat cell lines were grown in RPMI-1640 medium (Hyclone, Logan, Utah, United States of America) supplemented with 10% fetal bovine serum and 50 μg/mL gentamicin sulfate. […]
as §2

Another data set relates to HL-60 leukemia cells. Kind of data set: In vitro growth inhibition, HL-60. It counts as cell-based, human. Particulars: Homo sapiens, 50% of vehicle control cell growth. Here is the method: as §3, §2
The test system of data set [3] is PFKFB3+/- ht/LT/ras fibroblasts. Put plainly: Growth inhibition of PFKFB3 haplo-insufficient transformed fibroblasts. It counts as cell-based, mice. Particulars: Mus musculus, Fibroblast, 48 hours. The text has this: (§4) FIG. 6B is a bar graph showing the anti-proliferative effects of 3PO in fibroblasts from wild-type (+/+) or haplo-insufficient (+/−) PFKFB3 mice which were subsequently immortalized and transformed with human telomerase (ht), large T antigen (LT), and oncogenic H-ras^v12. Cell numbers (expressed as % of cell numbers of control cells) for transformed wild type (+/+) cells are shown in solid bars and numbers for transformed haplo-insufficient (+/−) cells are shown in striped bars. As indicated at the bottom of the graph, cells were incubated with vehicle or increasing amounts of 3PO (5, 10, 20, 30, 40, or 60 μM). Viable cells were counted after 48 hours. The bars represent the mean±STD of triplicate values from a representative experiment. * p-value<0.01 represents statistical difference between vehicle control and 3PO treated samples.
(§5) Cells were collected 48 hours post-treatment, and cell number and viability were determined by trypan blue exclusion. IC50 values were calculated as the compound 1 concentration needed for 50% of vehicle treated cell growth.
(§6) One of the most difficult challenges of new anti-neoplastic therapies is in situ target validation. To address this question, two different cell lines with varying levels of PFKFB3 expression were studied. […]

The test system of another data set is NHBE-ht/LT/ras cells. Put plainly: In vitro growth inhibition, transformed NHBE cells. It is filed as cell-based, human. Here is the method: The K562, HL-60, MDA-MB231, and melanoma (CRL-11174) human cancer cell lines were purchased from ATCC (American Tissue Type Culture Collection, Manassas, Va., United States of America). HeLa, A549, Lewis Lung Carcinoma, MDA-MB231, and melanoma cells were grown in Dulbecco's Modified Eagle Medium (DMEM) (Hyclone, Logan, Utah, United States of America) supplemented with 10% fetal bovine serum (Hyclone, Logan, Utah, United States of America) and 50 μg/mL gentamicin sulfate (Invitrogen, Carlsbad, Calif., United States of America). The HL-60, K562, and Jurkat cell lines were grown in RPMI-1640 medium (Hyclone, Logan, Utah, United States of America) supplemented with 10% fetal bovine serum and 50 μg/mL gentamicin sulfate. The primary Normal Human Bronchial Epithelial (NHBE) cells and cells that were immortalized with human telomerase (ht) and large T antigen (LT) and transformed with mutated ras (ht/LT/ras cells) were cultured in Bronchial Epithelial Cell Basal Growth Medium (Cambrex, Walkersville, Md., United States of America) supplemented with 52 μg/mL bovine pituitary extract, 0.5 μg/mL hydrocortisone, […], 0.5 μg/mL epinephrine, 10 μg/mL transferrin, 5 μg/mL insulin, 0.1 ng/mL retinoic acid, 6.5 ng/mL triiodothyronine, 50 μg/mL gentamycin, and 50 ng/mL amphotericin-B (SingleQuots, Cambrex, Walkersville, Md., United States of America). All cell lines were maintained under 5% CO2 at 37° C.
as §1, §2

A further data set relates to Jurkat leukemia cells. Put plainly: In vitro growth inhibition, Jurkat. It counts as cell-based. The settings on record: Homo sapiens, 50% of vehicle control cell growth. Here is the method: as §3, §2
Data set [4] concerns +/+ ht/LT/ras fibroblasts. Put plainly: Growth inhibition of wild-type transformed fibroblasts. It is filed as cell-based, mice. The settings on record: Mus musculus, Fibroblast, 48 hours.
Description: as §4, §5, §6

What is called IC50 is the point on the concentration scale where inhibition reaches its midpoint. Higher therefore signals weaker potency in that assay. As to `O=C(/C=C/c1cccnc1)c1ccncc1` [Compound 1, 3-(3-pyridinyl)-1-(4-pyridinyl)-2-propen-1-one], the half-maximal inhibitory concentration (IC50) in data set [1] came to 8.9 µM; in data set [2] it was 19 µM; with HL-60 leukemia cells, 4.5 µM; in data set [3], 26 µM; in the data set on NHBE-ht/LT/ras cells (Homo sapiens, NHBE, 48 h) it was 1.5 µM; in the data set with Jurkat leukemia cells it was 1.4 µM. Also, the midpoint of inhibition in data set [4], the IC50, lay at 49 µM. In the data set on NHBE-ht/LT/ras cells (transformed NHBE cells), the “concentration at which treatment was completely cytotoxic” value is recorded as “approximately 10 μM”. In addition, the “concentration at which treatment was cytostatic” value in the data set on NHBE-ht/LT/ras cells (transformed NHBE cells) is on record as “below 1 μM”.
